From article PMC10135567, “New Indole-3-Propionic Acid and 5-Methoxy-Indole Carboxylic Acid Derived Hydrazone Hybrids as Multifunctional Neuroprotectors” (Antioxidants, 2023)
pIC50: −log10 of the molar value.

What was measured:
SH-SY5Y cells [1] = experiment: H2O2-induced oxidative stress model in SH-SY5Y cells; format: cell-based, human; conditions: H2O2 1 mM 15 min
Description: The SH-SY5Y cells were seeded in 96-well plates at a density of 3.5 × 10^4/well in 100 μL of RPMI supplemented with FBS for 24 h. Then, the cell medium was aspirated, and the cells were treated with different concentrations of the compounds—1, 10, and 50 µM for 90 min. Afterwards, the SH-SY5Y cells were washed with PBS and were exposed to hydrogen peroxide (H2O2) (1 mM in PBS for 15 min) to induce oxidative stress. All well contents were replaced by fresh culture medium and incubated for 24 h. MTT assay was used to evaluate the amount of attached viable cells. Negative controls (cells without H2O2 treatment) were considered as 100% protection and H2O2-treated cells as 0% protection.
To evaluate the possible neuroprotective effects of the compounds, the SH-SY5Y cells were pre-treated with different concentrations (1, 10, 50 µM) for 90 min and then exposed to H2O2 (1 mM) for 15 min. The cell viability of all compounds was measured to verify their protective effect against the toxicity of hydrogen peroxide.

SH-SY5Y cells [2] = experiment: MTT cell viability assay (cytotoxicity), SH-SY5Y
Method in brief: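 SH-SY5Y cells seeded at 2 × 10^4 cells/well, adhered 24 h, then exposed to compounds (1–500 μM) for 24 h at 37 °C, 5% CO2; DMSO ≤0.5% as solvent control. MTT (0.5 mg/mL) added for 3 h, formazan dissolved, absorbance read at 570 nm; ≥6 wells per concentration.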

bEnd3 cells = experiment: MTT cell viability assay (cytotoxicity), bEnd3; format: cell-based, mouse; conditions: 24 h, 1–500 µM
Method in brief: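 bEnd3 mouse brain endothelial cells (0.7 × 10^4/well, 24 h adherence) were exposed to compounds at 1–500 μM for 24 h, with 0.5% DMSO as solvent control. Viability was read by MTT reduction (0.5 mg/mL, 3 h, 37 °C) as absorbance at 570 nm.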

Compound | protective effect: increased cell viability of SH-SY5Y vs. H2O2 group (SH-SY5Y cells [1]; 1 µM pre-treatment 90 min) [%] | protective effect: increased cell viability of SH-SY5Y vs. H2O2 group (SH-SY5Y cells [1]; 10 µM pre-treatment 90 min) [%] | protective effect: increased cell viability of SH-SY5Y vs. H2O2 group (SH-SY5Y cells [1]; 50 µM pre-treatment 90 min) [%] | pIC50 (SH-SY5Y cells [2]) | pIC50 (bEnd3 cells)
COc1ccc2[nH]cc(CCNC(C)=O)c2c1 [Melatonin] | 19 | 42 | 64 |  | 
N′-(4-Hydroxy-2-methoxybenzylidene)-3-(1H-indol-3-yl)propanehydrazide [Compound 3e] |  |  |  | < 3.30 | 4.07
